We go through 8 compounds from PubChem BioAssay (NCI).

Among the test systems are BT-549 breast; CAKI-1 renal; CCRF-CEM leukemia; HCT-116 colon; HOP-92 NSCLC; M14 melanoma; OVCAR-4 ovarian; SF-268 CNS; SNB-19 CNS; UACC-62 melanoma.
Test in all cases: NCI-60 cell line screen, 48 h

Structures are written as SMILES.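 Step 1: Grow cells in 96-well plates. Step 2: Expose to compound for 48 hours at 5 concentrations. Step 3: Interpolate endpoints linearly; if unreached, use highest concentration. The concentration for 50% growth inhibition is given as GI50. At the TGI there is no net growth.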

In the case of `C=CCOc1c(Br)cc(Br)cc1Br`, the GI50 in the assay with BT-549 breast was 35.5 µM; in the assay with CAKI-1 renal it was 13 µM; with CCRF-CEM leukemia, 10.4 µM; in the assay on HCT-116 colon it was 11.4 µM; in the assay on HOP-92 NSCLC, 35.6 µM; in the assay with M14 melanoma, 19.6 µM. Also, the GI50 is 13.6 µM in the assay on OVCAR-4 ovarian, 21.1 µM in the assay with SF-268 CNS, 17.4 µM in the assay on SNB-19 CNS and 4.8 µM with UACC-62 melanoma. Further, the TGI was over 100 µM in the assay with BT-549 breast; 83.6 µM in the assay with CAKI-1 renal; over 100 µM in the assay on CCRF-CEM leukemia; 66.2 µM with HCT-116 colon; over 100 µM in the assay on HOP-92 NSCLC; over 100 µM in the assay with M14 melanoma. In addition, the TGI in the assay on OVCAR-4 ovarian was 39.9 µM; with SF-268 CNS, over 100 µM; with SNB-19 CNS it was over 100 µM; in the assay on UACC-62 melanoma it was 91.7 µM.

Consider `Oc1ccc(Cc2ccccc2)c2cccnc12`, for which the GI50 in the assay with BT-549 breast was 2.33 µM; with CAKI-1 renal it was 2.22 µM; with CCRF-CEM leukemia, 0.423 µM; with HCT-116 colon, 1.79 µM; in the assay on HOP-92 NSCLC, 1.02 µM; in the assay on M14 melanoma, 1.51 µM. The GI50 with OVCAR-4 ovarian was 6.35 µM; in the assay with SF-268 CNS it was 2.18 µM; in the assay on SNB-19 CNS, 3.08 µM; with UACC-62 melanoma it was 2.32 µM. In addition, the TGI with BT-549 breast was found to be 26.7 µM; with CAKI-1 renal, 8.96 µM; with CCRF-CEM leukemia, 5.44 µM; in the assay with HCT-116 colon, 21.5 µM; with HOP-92 NSCLC, 39.6 µM; in the assay on M14 melanoma, 10.6 µM. For the same compound, the TGI in the assay with OVCAR-4 ovarian was over 100 µM; in the assay on SF-268 CNS, 86.8 µM; in the assay on SNB-19 CNS, over 100 µM; in the assay with UACC-62 melanoma, 6.04 µM.

`O=C(N/N=C/c1ccc(Cl)cc1Cl)c1ccccc1Nc1cccc(C(F)(F)F)c1`: the GI50 was 3.84 µM in the assay on BT-549 breast; 3.45 µM in the assay with CAKI-1 renal; 3.51 µM in the assay with CCRF-CEM leukemia; 5.62 µM with HCT-116 colon; 1.5 µM in the assay with HOP-92 NSCLC; 5.51 µM with M14 melanoma. Also, the GI50 with OVCAR-4 ovarian is 2.94 µM; in the assay on SF-268 CNS it was 3.38 µM; with SNB-19 CNS, 2.5 µM; with UACC-62 melanoma, 13.3 µM. In addition, the TGI is 32.5 µM in the assay with BT-549 breast; 14.4 µM with CAKI-1 renal; 19.3 µM in the assay with CCRF-CEM leukemia; 29.9 µM in the assay with HCT-116 colon; 3.57 µM in the assay with HOP-92 NSCLC; 35.3 µM with M14 melanoma. The TGI with OVCAR-4 ovarian came out at 12.4 µM; in the assay on SF-268 CNS, 13.3 µM; with SNB-19 CNS, 6.93 µM; with UACC-62 melanoma it was 58.4 µM.

With `CNc1nc(NC2CCCC2)nc(Sc2ccc(OC)cc2)n1`, the GI50 in the assay on BT-549 breast was over 10 µM; with CAKI-1 renal, over 10 µM; in the assay with CCRF-CEM leukemia, over 10 µM; in the assay on HCT-116 colon it was over 10 µM; in the assay with HOP-92 NSCLC, 1.09 µM; in the assay on M14 melanoma, over 10 µM. For the same compound, the GI50 with OVCAR-4 ovarian, in the assay on SF-268 CNS, with SNB-19 CNS and with UACC-62 melanoma was over 10 µM throughout. In addition, the TGI was over 10 µM with BT-549 breast; over 10 µM in the assay with CAKI-1 renal; over 10 µM in the assay with CCRF-CEM leukemia; over 10 µM in the assay on HCT-116 colon; 9.5 µM in the assay on HOP-92 NSCLC; over 10 µM in the assay on M14 melanoma. The TGI in the assay with OVCAR-4 ovarian, in the assay on SF-268 CNS, in the assay with SNB-19 CNS and in the assay with UACC-62 melanoma was over 10 µM throughout.

For `Cc1noc(C)c1-c1ccc2[nH]c(=O)n3c2c1OC[C@@H]3c1ccccn1`, the GI50 with BT-549 breast is 15.6 µM; with CAKI-1 renal, 0.151 µM; in the assay with CCRF-CEM leukemia it was 2.07 µM; in the assay with HCT-116 colon, 2.84 µM; in the assay on HOP-92 NSCLC, 0.323 µM; in the assay on M14 melanoma, 0.803 µM. Besides, the GI50 was 1.03 µM in the assay on OVCAR-4 ovarian, over 100 µM with SF-268 CNS, 4.81 µM in the assay with SNB-19 CNS and 0.302 µM with UACC-62 melanoma. Besides, the TGI in the assay with BT-549 breast, in the assay with CAKI-1 renal, in the assay with CCRF-CEM leukemia, in the assay with HCT-116 colon, with HOP-92 NSCLC and in the assay on M14 melanoma was over 100 µM throughout. Further, the TGI with OVCAR-4 ovarian, with SF-268 CNS, in the assay with SNB-19 CNS and with UACC-62 melanoma was over 100 µM each time.

Consider `COc1ccccc1C(=O)c1ccc2ccccc2c1`, for which the TGI in the assay with BT-549 breast is 52.7 µM; in the assay with CAKI-1 renal, 49.2 µM; in the assay on CCRF-CEM leukemia it was over 100 µM; in the assay on HCT-116 colon it was over 100 µM; with HOP-92 NSCLC, 66.5 µM; with M14 melanoma it was 58.1 µM. Further, the TGI with OVCAR-4 ovarian was over 100 µM; with SF-268 CNS, over 100 µM; in the assay with SNB-19 CNS, 78.4 µM; with UACC-62 melanoma it was over 100 µM.

Turning to `CN1CCN(Cc2ccc(NC(=O)c3ccc(C(C)(C)C)c(C#Cc4cnc5cccnn45)c3)cc2C(F)(F)F)CC1`, the GI50 in the assay with BT-549 breast is 15 µM; in the assay on CAKI-1 renal it was 12.1 µM; in the assay with CCRF-CEM leukemia, 1.93 µM; in the assay with HCT-116 colon, 1.67 µM; in the assay on HOP-92 NSCLC, 12.1 µM; in the assay with M14 melanoma, 1.8 µM. Moreover, the GI50 in the assay on OVCAR-4 ovarian is 4.64 µM; in the assay with SF-268 CNS, 1.87 µM; with SNB-19 CNS, 2.1 µM; with UACC-62 melanoma it was 2.08 µM. For the same compound, the TGI in the assay on BT-549 breast is 28.9 µM; with CAKI-1 renal, 26.7 µM; with CCRF-CEM leukemia, 4.63 µM; with HCT-116 colon, 3.08 µM; in the assay on HOP-92 NSCLC, 27.1 µM; in the assay on M14 melanoma, 3.44 µM. For the same compound, the TGI with OVCAR-4 ovarian was found to be 19.7 µM; in the assay with SF-268 CNS, 3.82 µM; with SNB-19 CNS it was 4.14 µM; in the assay on UACC-62 melanoma it was 4.37 µM.

Take `COc1cc2c3c(n(CCCN4CCC(N)CC4)c(=O)c2cc1OC)-c1cc2c(cc1C3=O)OCO2`: the GI50 was 2.41 µM in the assay with BT-549 breast; 0.311 µM in the assay on CAKI-1 renal; 0.129 µM in the assay with CCRF-CEM leukemia; 0.119 µM in the assay with HCT-116 colon; 0.202 µM in the assay with HOP-92 NSCLC; 1.34 µM with M14 melanoma. The GI50 is 0.211 µM with OVCAR-4 ovarian, 1.72 µM with SF-268 CNS, 1.46 µM in the assay on SNB-19 CNS and 1.33 µM in the assay on UACC-62 melanoma. For the same compound, the TGI stood at 9.84 µM with BT-549 breast; 2.99 µM with CAKI-1 renal; 0.681 µM in the assay with CCRF-CEM leukemia; 0.807 µM with HCT-116 colon; 1.5 µM in the assay on HOP-92 NSCLC; 5.23 µM in the assay with M14 melanoma. Besides, the TGI with OVCAR-4 ovarian turned out to be 1.27 µM; with SF-268 CNS it was 8.89 µM; with SNB-19 CNS, 8.7 µM; in the assay on UACC-62 melanoma, 6.34 µM.
